Measurements: US20140086939A1, “COMPOSITIONS AND METHODS FOR DETECTING AND TREATING CANCER” (priority 2011, published 2014)
“Also recorded” adds a separate entry of the source.

Key:
[1] = test system: Ikkβ^f/f and Ikkβ^Δ dih10 cells; experiment: Subcutaneous tumor growth of implanted dih10 hepatoma cells in C57BL/6 mice; format: in vivo, mouse
Procedure: FIG. 20. IKKβ deletion in initiated cells enhances proliferation and self-renewal of HCC progenitors. (A) DEN-induced HCC (dih) cell strains from Ikkβ^f/f mice were cultured and infected with Adv-GFP or Adv-Cre. Whole cell lysates of infected dih10 cells were immunoblotted for IKKβ (bottom panel). The cells were further cultured without serum on Petri dishes to form hepatospheres (upper panels). Numbers of 1^0 and 2^0 hepatospheres formed per 100 plated cells were determined (n=3; *: p<0.05). Magnification bar=100 μm. (B) Ikkβ^f/f dih10 cells were infected with an empty retrovirus (vector) or a retrovirus expressing IκBα super-repressor (SR). Stably transfected cells were selected and cultured as above and hepatosphere formation was analyzed (n=3; *: p<0.05). (C, D) IKKβ expressing (Ikkβ^f/f) and deficient (Ikkβ^Δ) dih10 cells (2.5×10^6 each) were s.c. injected into 8 weeks old C57BL/6 mice. (C) Allograft volume was measured weekly (n=5; *: p<0.01). Dissected tumors are shown on the right. (D) BrdU incorporation into tumors was determined (n=5; *: p<0.05). (E) Ikkβ^f/f and Ikkβ^Δ dih12 cells were labeled with dsRed and 4×10^5 cells were seeded into MUP-uPA mouse livers. Relative amounts of dsRed DNA in transplanted MUP-uPA livers were determined by real-time PCR 3 weeks post-inoculation and normalized to actin DNA as a measurement of cell growth (n=5; *: p<0.05). (F) Ikkβ^Δ dih10 cells were reconstituted with a control vector or WT IKKβ expression vector and were s.c. injected into 8 weeks old C57BL/6 mice. Allograft volume was measured weekly (n=5; *: p<0.01). (G) Ikkβ^f/f and IkkβΔ dih10 cells were s.c. injected as above. Starting from day 2, mice were treated daily with MLN120B or vehicle by oral gavage. Tumor volume was measured weekly (n=5; *: p<0.01, f/f/control vs. f/f/MLN by one-way ANOVA). Please also see FIG. 27.
(§1) FIG. 22. ROS-mediated SHP1/2 inhibition in IKKβ-deficient HCCs correlates with STAT3 activation and accelerated tumor growth. (A) Tumors derived from Ikkβ^f/f (f/f) and Ikkβ^Δ (Δ) dih10 cells were collected and lysed. Tumor lysates were immunoprecipitated with an anti-JAK2 antibody and examined for JAK2 tyrosine phosphorylation with PY20 antibody. Tumor lysates were also used for immunoblot analyses with the indicated antibodies. (B) SHP1 and SHP2 were immunoprecipitated from above tumor lysates and their phosphatase activities were measured (n=4; *: p<0.05). (C) Fresh frozen sections of HCCs from transplanted MUP-uPA mice were analyzed for superoxide accumulation by DHE staining. Fluorescence intensity in several fields was quantitated by ImageJ and relative average increases in fluorescent intensity are shown (n=3; *: p<0.01). Magnification bar=100 μm. (D-F) Ikkβ^f/5 (f/f) and Ikkβ^Δ (Δ) dih10 cells […] each were s.c. implanted into 8 weeks old C57BL/6 mice. Starting on day 2, the mice were switched to a diet containing vehicle or BHA (0.7%) for 6 weeks. (D) Tumors were collected from BHA treated and untreated mice, lysed and SHP1/2 phosphatase activities were measured. The data were plotted as SHP1/2 phosphatase activities in Ikkβ^Δ tumors relative to activities in Ikkβ^f/f tumors (n=4; *: p<0.05). (E) Tumor lysates were used to determine JNK kinase activity and STAT3 phosphorylation. (F) Tumor volume was measured weekly (n=5; p<0.01, Δ/ctrl vs. Δ/BHA by one way ANOVA). Please also see FIG. 29.
FIG. 30. STAT3 is required for HCC formation and growth. (A-D) Ikkβ^f/f (f/f) and Ikkβ^Δ (Δ) dih10 cells were s.c. implanted into 8 weeks old C57BL/6 mice. (A) Starting on day 2, the mice were i.p. injected with vehicle (ctrl) or 0.5 mg/mouse AG490 daily. Tumor volume was measured (n=5; p<0.05, f/f/vehicle vs. f/f/AG490; p<0.01, Δ/vehicle vs. Δ/AG490 by one way ANOVA). (B) After 6 weeks, tumors were removed, lysed and analyzed by immunoblotting with the indicated antibodies. […] (D) After 6 weeks, tumors were removed and analyzed as above. […]

STAT3 = molecular target: T1, STAT3 (Mus musculus, UniProt P42227); experiment: STAT3 phosphorylation in lysates of dih10 tumors (immunoblot); format: in vivo
T1 construct: from tissue; host or cells: subcutaneous tumors formed by Ikkβf/f or IkkβΔ dih10 cells in C57BL/6 mice
T1 sequence (P42227 whole entry): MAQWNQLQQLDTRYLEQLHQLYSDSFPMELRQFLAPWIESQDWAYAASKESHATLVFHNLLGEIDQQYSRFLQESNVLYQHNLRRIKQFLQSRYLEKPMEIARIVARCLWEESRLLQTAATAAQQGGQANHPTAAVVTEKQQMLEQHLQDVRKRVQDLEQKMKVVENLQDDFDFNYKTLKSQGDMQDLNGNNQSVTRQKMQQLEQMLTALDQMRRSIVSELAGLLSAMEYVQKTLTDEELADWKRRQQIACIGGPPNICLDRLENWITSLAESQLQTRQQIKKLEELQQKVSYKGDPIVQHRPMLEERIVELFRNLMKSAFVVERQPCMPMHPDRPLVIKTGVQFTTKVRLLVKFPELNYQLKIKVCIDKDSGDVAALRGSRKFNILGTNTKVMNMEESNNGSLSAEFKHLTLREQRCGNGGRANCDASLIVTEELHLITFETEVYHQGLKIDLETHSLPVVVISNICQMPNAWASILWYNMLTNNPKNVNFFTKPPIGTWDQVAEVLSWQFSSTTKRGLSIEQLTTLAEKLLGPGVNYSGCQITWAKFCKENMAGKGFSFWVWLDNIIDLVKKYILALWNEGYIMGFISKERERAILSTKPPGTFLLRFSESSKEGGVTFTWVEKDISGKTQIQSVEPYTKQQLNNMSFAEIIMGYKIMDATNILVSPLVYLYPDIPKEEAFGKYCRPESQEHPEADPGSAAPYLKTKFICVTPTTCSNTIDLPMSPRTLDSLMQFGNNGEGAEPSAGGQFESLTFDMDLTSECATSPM
Procedure: (A) Tumors derived from Ikkβ^f/f (f/f) and Ikkβ^Δ (Δ) dih10 cells were collected and lysed. Tumor lysates were immunoprecipitated with an anti-JAK2 antibody and examined for JAK2 tyrosine phosphorylation with PY20 antibody. Tumor lysates were also used for immunoblot analyses with the indicated antibodies. (B) SHP1 and SHP2 were immunoprecipitated from above tumor lysates and their phosphatase activities were measured (n=4; *: p<0.05). (C) Fresh frozen sections of HCCs from transplanted MUP-uPA mice were analyzed for superoxide accumulation by DHE staining. Fluorescence intensity in several fields was quantitated by ImageJ and relative average increases in fluorescent intensity are shown (n=3; *: p<0.01). Magnification bar=100 μm. (D-F) Ikkβ^f/5 (f/f) and Ikkβ^Δ (Δ) dih10 cells 2.5×10^8 each were s.c. implanted into 8 weeks old C57BL/6 mice. Starting on day 2, the mice were switched to a diet containing vehicle or BHA (0.7%) for 6 weeks. (D) Tumors were collected from BHA treated and untreated mice, lysed and SHP1/2 phosphatase activities were measured. The data were plotted as SHP1/2 phosphatase activities in Ikkβ^Δ tumors relative to activities in Ikkβ^f/f tumors (n=4; *: p<0.05). (E) Tumor lysates were used to determine JNK kinase activity and STAT3 phosphorylation. (F) Tumor volume was measured weekly (n=5; p<0.01, Δ/ctrl vs. Δ/BHA by one way ANOVA).
Antibodies used were: anti-IKKβ (Upstate), anti-JNK1/2 (Pharmingen), anti-c-Jun (Santa Cruz), anti-ERK, and anti-phospho-ERK (Cell Signaling), anti-STAT3 (Santa Cruz), anti-phospho-STAT3 (Cell signaling), anti-Albumin (Novus), anti-SHP1 (Santa Cruz), anti-SHP2 (Cell signaling), anti-SOCS3 (Immuno-Biological Laboratories), anti-phospho-p65 (Cell signaling). […] To measure SHP1/2 phosphatase activities, SHP1 and SHP2 were immunoprecipitated from freshly prepared lysates. Dithiothreitol (DTT) and other reducing agents were excluded from all buffers. SHP1/2 phosphatase activities were determined as described (Lee and Esselman, 2002).

[2] = test system: human breast cancer cell line with constitutive STAT3 activity; conditions: in vivo; cited from earlier work
Huh-7 = conditions: 5 mg/kg given every other day; cited from earlier work
liver [3] = conditions: cited from earlier work
JAK2 = JAK2 phosphorylation in IKKβ-deficient tumors; format: in vivo, mouse; conditions: BHA treatment of tumor-bearing mice
Description: as §1, with “The data were plotted as SHP1/2 phosphatase activities in Ikkβ^Δ tumors relative to activities in Ikkβ^f/f tumors (n=4; *: p<0.05). (E) Tumor lysates were used to determine JNK kinase activity and STAT3 phosphorylation.” left out, “Please also see FIG. 29.” left out

JNK = JNK kinase activity in lysates of dih10 tumors; format: in vivo, mouse; conditions: diet containing BHA (0.7%) for 6 weeks
Description: as §1, with “Starting on day 2, the mice were switched to a diet containing vehicle or BHA (0.7%) for 6 weeks.” left out, “The data were plotted as SHP1/2 phosphatase activities in Ikkβ^Δ tumors relative to activities in Ikkβ^f/f tumors (n=4; *: p<0.05). (E) Tumor lysates were used to determine JNK kinase activity and STAT3 phosphorylation.” left out, “Please also see FIG. 29.” left out
(§2) RNA extraction and q-PCR were described (Sakurai et al., 2006). […] SHP1/2 phosphatase activities were determined as described (Lee and Esselman, 2002).

SHP1 and SHP2 = experiment: SHP1/2 phosphatase activities in lysates of dih10 tumors; format: in vivo, mouse; conditions: diet containing BHA (0.7%) for 6 weeks
Description: as §1, with “Starting on day 2, the mice were switched to a diet containing vehicle or BHA (0.7%) for 6 weeks.” left out, “The data were plotted as SHP1/2 phosphatase activities in Ikkβ^Δ tumors relative to activities in Ikkβ^f/f tumors (n=4; *: p<0.05). (E) Tumor lysates were used to determine JNK kinase activity and STAT3 phosphorylation.” left out, “Please also see FIG. 29.” left out
as §2

liver [4] = conditions: cited from earlier work; remark: listed apart in the source
[5] = test system: STAT3 phosphorylation in Ikkβ^f/f dih10 cells; experiment: IL-6 induced STAT3 phosphorylation by immunoblotting in dih10 cells; format: cell-based, mouse; conditions: dih cells serum starved 48 hrs; 20 μM MLN120B; 10 ng/ml IL-6 30 min
Procedure: (§3) FIG. 28. IKKβ ablation enhances STAT3 activation. (A) Ikkβ^f/f and Ikkβ^Δ dih10 cells were cultured under hepatosphere-forming conditions for 3 days and treated with 10 ng/ml of IL-6 for the indicated times. Whole cell lysates were analyzed by immunoblotting for STAT3 phosphorylation. (B) Ikkβ^f/f and Ikkβ^Δ dih10 cells were cultured under hepatosphere-forming conditions for 3 days and treated with 10 ng/ml of IL-22 for 30 min. STAT3 phosphorylation was analyzed as above. (C) Ikkβ^Δ dih10 cells were cultured under hepatosphere-forming conditions and infected with a control Adv or an Adv vector expressing constitutively active IKKβ^EE. The cells were treated with 10 ng/ml of IL-6 for 15 min and STAT3 phosphorylation was analyzed. (D) Ikkβ^f/f dih10 cells and HepG2 cells were serum starved for 48 hrs and treated with 20 μM MLN120B for the indicated times. The cells were then stimulated with 10 ng/ml of IL-6 for 30 min and STAT3 phosphorylation was analyzed by immunoblotting. Relative activities (RA) of STAT3 phosphorylation were determined by densitometry. (E) Ikkβ^f/f (f/f) and Ikkβ^Δ (Δ) HCCs from transplanted MUP-uPA mice were collected and total RNA was extracted. Expression of IL-6 and IL-22 mRNAs was measured by RT PCR.
as §2

[6] = test system: STAT3 phosphorylation in HepG2 cells; experiment: IL-6 induced STAT3 phosphorylation by immunoblotting in HepG2 cells; format: cell-based; conditions: human liver cancer cell line (HepG2) serum starved 48 hrs; 20 μM MLN120B; 10 ng/ml IL-6 30 min
Procedure: as §3, §2

[7] = test system: many different types of cancer cells transplanted into mice; conditions: in vivo; cited from earlier work
[8] = AG490 0.5 mg/mouse i.p. daily from day 2
[9] = diet containing BHA (0.7%) for 6 weeks
[10] = s.c. dih10 in C57BL/6, MLN120B daily by oral gavage from day 2

N#C/C(=C/c1ccc(O)c(O)c1)C(=O)NCc1ccccc1 [AG490]
in vivo tumorigenic growth of dih cells [1]: effective inhibition | Ikkβ^f/f tumorigenic growth [1, 8]: more modest effect | growth of Ikkβ^Δ subcutaneous tumors [1, 8]: inhibited the growth | STAT3 activity in dih cell tumors (STAT3): effective inhibition | STAT3 phosphorylation in tumors (STAT3; AG490 0.5 mg/mouse i.p. daily, tumors after 6 weeks, both IKKβ status): inhibited STAT3 phosphorylation regardless of IKKβ status

Cc1ccc(S(=O)(=O)OCC(=O)Nc2ccc(C(=O)O)c(O)c2)cc1 [S3I-201]
in vivo tumorigenic growth of dih cells [1]: effective inhibition | tumor growth of breast cancer xenografts [2]: inhibition of tumor growth | STAT3 tyrosine phosphorylation in Huh-7 xenografts (Huh-7): inhibited | tumor growth of Huh-7 xenografts (Huh-7): inhibited

CCN(CC)N=O [DEN, diethyl nitrosamine]
HCC induction (liver [3]; male mice older than 4 weeks of age): no longer effective in HCC induction on its own | HCC induction, fraction of male mice (liver [3]; single dose to two-weeks-old mice): 100%

COc1ccc(O)c(C(C)(C)C)c1 [BHA, butylated hydroxyanisole]
Ikkβ^Δ tumor growth [1, 9]: inhibits tumor growth; also recorded: reduced Ikkβ^Δ tumor growth to a level that was similar to that of Ikkβ^f/f tumors in untreated mice | JAK2 phosphorylation in IKKβ-deficient tumors (JAK2): reduces | JNK activity in tumors (JNK): reduced JNK activity | STAT3 phosphorylation in tumors (STAT3; [9]): reduced | SHP1/2 phosphatase activities in IKKβ-deficient tumors (SHP1 and SHP2): restores SHP1/2 activity; also recorded: completely restored | liver damage, compensatory proliferation and hepatocarcinogenesis (liver [4]; Ikkβ^Δhep and Ikkγ^Δhep mutant mice, BHA consumption): reversed | ROS accumulation in the liver (liver [4]; dietary administration): can be prevented

COc1c(Cl)cc2c([nH]c3cnccc32)c1NC(=O)c1cccnc1C [MLN120B]
tumorigenic growth (tumor volume) of Ikkβ^f/f dih cells [1, 10]: enhanced tumorigenic growth | tumorigenic growth (tumor volume) of Ikkβ^Δ dih cells [1, 10]: not Ikkβ^Δ cells | IL-6 induced STAT3 activation [5]: enhanced IL-6 induced STAT3 activation | IL-6 induced STAT3 activation [6]: enhanced IL-6 induced STAT3 activation

Cc1cc(Nc2nc(N[C@@H](C)c3ncc(F)cn3)ncc2Cl)n[nH]1 [AZD1480]
tumorigenic growth of cancer cells transplanted into mice [7]: Effective inhibition
